According to US9872514B2, “Compounds, compositions, and methods for reducing or eliminating bitter taste” (Chromocell Corporation, priority 2010, dated 2018):
Where two headings read alike, the source gives them in different places.

Assays:
Format in all cases: in vivo, humans
[1] = test system: bitter taste of an aqueous solution of KCl; assay: Sip and spit bitterness rating of aqueous KCl test solutions; details: Homo sapiens, aqueous KCl 4.85 g/L, 1% EtOH, bitterness scored 0-15 vs KCl standard, dash = none of the tested conc.
Method: An amount of this stock compound solution is then added to an aqueous KCl solution. Enough EtOH is then added to the resulting stock compound/KCl solution so that the final KCl test solution contains 1% EtOH. KCl solution standards were similarly prepared by dissolving various amounts of KCl in water and ethanol without adding any test compound.
The effect of the test compounds an the perception of the bitter taste of an aqueous solution of KCl in humans was evaluated using a “sip and spit” test as follows.
(§1) A set of KCl solution standards was developed and each standard solution was assigned a bitterness taste score of 0-15 (corresponding to aqueous KCl concentrations of 0 mM-120 mM). Panelists were trained to recognize these standards. In addition, before each day of testing, panelists were tested to see if they could determine differences in taste between the standard solutions. If a panelist was unable to recognize a change in KCl concentration, they were excluded from the panel for that day.
(§2) In a blind taste test, panelists were asked to compare the bitter taste of a small quantity (e.g., 8 ml) of each of the KCl Test Solutions to the taste of a KCl solution standard, without swallowing (see, e.g., Table 1). Specifically, panelists were asked to rate the bitterness of each KCl Test Solution on a scale of 0-15 using the same scale developed for the KCl solution standards. Each sample was tested in 2-4 discrete taste test experiments. Panelists were asked to rinse with water, eat a cracker, and wait approximately 10 minutes between samples.

[2] = test system: bitter taste of an aqueous solution of potassium lactate; assay: Sip and spit bitterness rating of aqueous potassium lactate test solutions; details: Homo sapiens, aqueous potassium lactate 41 g/L, 1% EtOH, dash = none of the tested conc.
Method: as §1, §2
Edible potassium lactate solution compositions (“potassium lactate test solutions”) were prepared by first dissolving varying amounts of the test compounds in an amount of ethanol or water (depending on the solubility of the compound) to create a 5 mg/mL stock compound solution. An amount of this stock compound solution is then added to an aqueous potassium lactate solution. Enough EtOH is then added to the resulting stock compound/potassium lactate solution so that the final potassium lactate test solution contains 1% EtOH. Potassium lactate solution standards were similarly prepared by dissolving various amounts of potassium lactate in water and ethanol without adding any test compound.
The effect of the test compounds on the perception of the bitter taste of an aqueous solution of potassium lactate in humans was evaluated using the “sip and spit” test described in Example 2.

[3] = test system: bitter taste of an aqueous solution of KCl; assay: Latin Square-2AFC sip and spit test of aqueous KCl solutions; details: Homo sapiens, aqueous KCl 4.85 g/L, Latin Square-2AFC vs KCl standard, dash = none of the tested conc.
Method: The effect of the test compounds on the perception of the bitter taste of an aqueous solution of KCl in humans was evaluated using a “sip and spit” test using a Latin Square-2AFC testing method as follows.
In a blind taste test, panelists were asked to compare the bitter taste of a small quantity (e.g., 8 ml) of a KCl Test Solution to the taste of a KCl solution standard (prepared as described in Example 1), without swallowing. NaCl solution standards were prepared as described in Example 1.
In order to eliminate any effects of sample order, a complete Latin Square design was employed so that each possible order of sample presentation was utilized across subjects. Each sample was tested in several discrete taste test experiments. Panelists were asked to rinse with water, eat a cracker, and wait about 10 minutes between samples. In each case, the panelists were asked to choose the sample which tasted “less bitter.” Illustrative results of the aqueous solution Latin Square-2AFC testing are presented in Table 5.

[4] = test system: bitter taste of KCl foodstuff slurries; assay: Latin Square-2AFC sip and spit test of KCl turkey slurry; details: 1.6% KCl, dash = none of the tested conc.
Method: The effect of the test compounds on the perception of the bitter taste of KCl foodstuff slurries in humans was evaluated using a “sip and spit” test using a Latin Square-2AFC testing method as follows.
In a blind taste test, panelists received two portions of turkey slurry—one portion being the KCl foodstuff slurry standard and the other being one of the KCl test foodstuff slurries (prepared as described in Example 5). NaCl foodstuff slurry standards were prepared as described in Example 1.
(§3) The panelists tasted each of the portions by sipping and spitting. In order to eliminate any effects of sample order, a complete Latin Square design was employed so that each possible order of sample presentation was utilized across subjects. Each sample was tested in several discrete taste test experiments. Panelists were asked to rinse with water, eat a cracker, and wait about 10 minutes between samples. In each case, the panelists were asked to choose the sample that tasted less bitter.

[5] = test system: bitter taste of KCl in solid-matrix foodstuffs; assay: Latin Square-2AFC chew and spit test of KCl solid turkey; details: Homo sapiens, 1.6% KCl (80% KCl:20% NaCl marinade), dash = none of the tested conc.
Method: The effect of the test compounds on the perception of the bitter taste of KCl in solid-matrix foodstuffs in humans was evaluated using a “chew and spit” test using a Latin Square-2AFC testing method as follows.
Two types of marinades containing Prague powder, sugar, Evian™ water, KCl and/or NaCl in water were prepared. One marinade contained 80% KCl, 20% NaCl (by weight) (i.e., marinade concentration of […]). A second marinade contained 60% KCl:40% NaCl (by weight) (i.e., marinade concentration of 1.2% KCl). Compound stock solutions were prepared by dissolving an amount of test compound in ethanol or water (depending on the solubility of the compound) to create a 5 mg/mL stock compound solution. Enough ethanol was added to each stock compound solution to generate a final stock compound solution containing 1% ethanol. The marinade, the stock compound solution and ground turkey were added to a mixing bowl, mixed at low-speed for about 2 minutes, and then mixed at high-speed for about 5 minutes. The marinated turkey mixture was divided into one pound aliquots, vacuum sealed into food saver bags, and allowed to marinate for about 2 hours in a refrigerator. The vacuum-sealed turkey was then cooked in an about 86° C. water bath for about 30 minutes. If after about 30 minutes, the internal turkey temperature had not reached about 170° F., the vacuum-sealed turkey was cooked for about an additional 5 minutes. The vacuum-sealed turkey was then refrigerated for about two weeks before taste testing. KCl standards were similarly prepared by dissolving KCl in the marinade without adding any test compound during the turkey preparation.
as §3, with “tasted” for “tasted each of the”, “by chewing” for “by sipping”, “Each simple” for “Each sample”, “water, cat” for “water, eat”

[6] = test system: bitter taste of KCl foodstuff slurries; assay: Two-alternative forced choice (2AFC) sip and spit test of KCl turkey foodstuff slurries; details: Homo sapiens, turkey slurry, 1.6% KCl, 2AFC vs KCl slurry standard, dash = none of the tested conc.
Method: Edible KCl food compositions (“KCl test foodstuff slurries”) were prepared as follows. Dehydrated, salt-free turkey powder was weighed and mixed with various amounts of KCl and/or NaCl and then solubilized with boiling water to create a homogenized solubilized turkey slurry. Varying amounts of the test compounds were dissolved in an amount of ethanol or water (depending on the solubility of the compound) to create a 5 mg/mL stock compound solution. An amount of this stock compound solution was then added to the turkey slurry. Enough EtOH is then added to the resulting stock compound/turkey slurry so that the slurry contains 1% EtOH. The slurry was again homogenized by boiling and mixing and allowed to cool to yield the final KCl test foodstuff slurry for taste testing KCl foodstuff slurry standards were similarly prepared without any test compound.
The effect of the test compounds on the perception of the bitter taste of KCl foodstuff slurries in humans was evaluated using a two-alternative-forced-choice “sip and spit” test as follows.
(§4) In a blind taste test, panelists received two portions of turkey slurry—one portion being the KCl foodstuff slurry standard and the other being one of the KCl test foodstuff slurries (each prepared as described in Example 5). The panelists tasted each of the portions by sipping and spitting. Each sample was tested in 2-4 discrete taste test experiments. Panelists were asked to rinse with water, eat a cracker, and wait about 10 minutes between samples. In each case, the panelists were asked to compare the bitter taste of the two turkey samples to each other (i.e., panelists were asked to indicate which sample was less bitter).

[7] = test system: bitter taste of potassium lactate foodstuffs; assay: 2AFC sip and spit test of potassium lactate turkey foodstuff slurries; details: turkey slurry, 4.5% potassium lactate, 2AFC vs standard; dash = none of the tested conc.
Method: as §4
Edible potassium lactate food compositions (“potassium lactate test foodstuff slurries”) were prepared as follows. Dehydrated, salt-free turkey powder was weighed and mixed with various amounts of potassium lactate and/or sodium lactate and then solubilized with boiling water to create a homogenized solubilized turkey slurry. Varying amounts of the test compounds were dissolved in an amount of ethanol or water depending on the solubility of the compound) to create a 5 mg/mL stock compound solution. An amount of this stock compound solution was then added to the turkey slurry. Enough EtOH is then added to the resulting stock compound/turkey slurry so that the final slurry contains 1% EtOH. The final slurry was again homogenized by boiling and mixing and allowed to cool to yield the final slurry for taste testing. Potassium lactate foodstuff slurry standards were similarly prepared without any test compound.
The effect of the test compounds on the perception of the bitter taste of potassium lactate foodstuffs in humans was evaluated using the two-alternative-forced-choice “sip and spit” test described in Example 6.

[8] = read-out: Conc. Where Decrease in Bitter Taste Discerned and p ≦ 0.1
[9] = read-out: Conc. Where Decrease in Bitter Taste Was Discerned
[10] = read-out: Conc. at Which At Least 50% of Panelist Discerned Decrease in Bitter Taste
[11] = read-out: Conc. at Which At Least 50% of Panelist Discerned Decrease in Bitter Taste and p ≦ 0.1

| SMILES | minimal effective concentration [1, 8] [µg/mL] | minimal effective concentration [2, 9] [µg/mL] | minimal effective concentration [2, 8] [µg/mL] | minimal effective concentration [5, 11] [µg/mL] | also measured |
| --- | --- | --- | --- | --- | --- |
| C/C=C/C(=O)C1C(C)=CCCC1(C)C (stereo not shown) [Compound 2] | 10 | 1 | – | – | minimal effective concentration [3, 10]: 2 µg/mL; Conc. at Which At Least 50% of Panelist Discerned Decrease in Bitter Taste [4]: 25 ppm; minimal effective concentration [5, 10]: 10 µg/mL |
| CCC(=O)OCCC(C)CCC=C(C)C (stereo not shown) [Compound 10] | 1 | 0.1 | – | – | minimal effective concentration [6, 10]: 0.1 µg/mL; minimal effective concentration [5, 10]: 0.5 µg/mL |
| CC(C)=CCCC(C)CCOC(=O)C(C)C (stereo not shown) [Compound 11] | 10 | – | – | – | minimal effective concentration [3, 10]: 1 µg/mL |
| CCC(=O)OC/C=C(\C)CCC=C(C)C [Compound 22] | 1 | – | 1 | – | minimal effective concentration [3, 11]: 0.25 µg/mL |
| CC(C)=CCC/C(C)=C/COC(=O)Cc1ccccc1 [Compound 26] | 1 | 10 | 10 | – | Conc. at Which At Least 50% of Panelist Discerned Decrease in Bitter Taste [4]: 0.6 ppm |
| CC(C)=CCC/C(C)=C\CO [Compound 31] | 10 | – | 10 | 4 | minimal effective concentration [6, 10]: 10 µg/mL |
| CC(C)=CCC/C(C)=C\COC(=O)C(C)C [Compound 34] | – | – | 1 | – | minimal effective concentration [5, 10]: 2 µg/mL |
| CC(=O)OC/C=C(\C)CCC[C@H](C)CCC[C@H](C)CCCC(C)C [Compound 41] | 10 | 5 | – | 2.5 | minimal effective concentration [1, 9]: 10 µg/mL; minimal effective concentration [3, 11]: 1 µg/mL |
| O=C1CCc2ccccc2O1 [Compound 53] | 10 | 10 | 10 | – | Conc. at Which At Least 50% of Panelist Discerned Decrease in Bitter Taste [7]: 5 ppm; minimal effective concentration [3, 10]: 1 µg/mL |
| OCc1ccc(O)cc1 [Compound 69] | 1 | – | – | 1 | minimal effective concentration [6, 11]: 10 µg/mL |
| CC12CCC(CC1=O)C2(C)C (stereo not shown) [Compound 74] | – | 1 | 1 | 10 | minimal effective concentration [6, 10]: 10 µg/mL; Conc. at Which At Least 50% of Panelist Discerned Decrease in Bitter Taste [7]: 1 ppm; minimal effective concentration [3, 11]: 1 µg/mL |
| CCC1(O)C2(C)CCC(C2)C1(C)C (stereo not shown) [Compound 85] | 1 | 5 | 5 | 1 | minimal effective concentration [3, 10]: 0.005 µg/mL |
| COc1ccc2c(=O)cc(-c3ccccc3)oc2c1 [Compound 95] | – | – | 1 | – | Conc. at Which At Least 50% of Panelist Discerned Decrease in Bitter Taste and p ≦ 0.1 [7]: 10 ppm |
| C[C@H]1CC[C@@H](C(C)(C)O)CC2=C1CC[C@@H]2C [Compound 120] | – | – | – | – | minimal effective concentration [6, 10]: 10 µg/mL; Conc. at Which At Least 50% of Panelist Discerned Decrease in Bitter Taste [7]: 10 ppm |
